In patent US20260125378A2, “Heterocyclic Compounds” (BeOne Medicines I GmbH, priority 2023, published 2026):
pIC50: −log10 of the molar value.

Legend:
[1] = biological target: T1, Full length DGKζ (in-house protein M1-V929) (Homo sapiens, UniProt Q13574); test: Biochemical DGK IC50 assay (ADP-Glo, lipid micelle substrate), DGKζ; conditions: 1 hour preincubation, 1 hour reaction, room temperature
T1 construct: His (N); TEV site (N); made in house; host or cells: Sf9 insect cells (Bac-to-Bac baculovirus)
T1 sequence (Q13574 1-929 isoform Q13574-4): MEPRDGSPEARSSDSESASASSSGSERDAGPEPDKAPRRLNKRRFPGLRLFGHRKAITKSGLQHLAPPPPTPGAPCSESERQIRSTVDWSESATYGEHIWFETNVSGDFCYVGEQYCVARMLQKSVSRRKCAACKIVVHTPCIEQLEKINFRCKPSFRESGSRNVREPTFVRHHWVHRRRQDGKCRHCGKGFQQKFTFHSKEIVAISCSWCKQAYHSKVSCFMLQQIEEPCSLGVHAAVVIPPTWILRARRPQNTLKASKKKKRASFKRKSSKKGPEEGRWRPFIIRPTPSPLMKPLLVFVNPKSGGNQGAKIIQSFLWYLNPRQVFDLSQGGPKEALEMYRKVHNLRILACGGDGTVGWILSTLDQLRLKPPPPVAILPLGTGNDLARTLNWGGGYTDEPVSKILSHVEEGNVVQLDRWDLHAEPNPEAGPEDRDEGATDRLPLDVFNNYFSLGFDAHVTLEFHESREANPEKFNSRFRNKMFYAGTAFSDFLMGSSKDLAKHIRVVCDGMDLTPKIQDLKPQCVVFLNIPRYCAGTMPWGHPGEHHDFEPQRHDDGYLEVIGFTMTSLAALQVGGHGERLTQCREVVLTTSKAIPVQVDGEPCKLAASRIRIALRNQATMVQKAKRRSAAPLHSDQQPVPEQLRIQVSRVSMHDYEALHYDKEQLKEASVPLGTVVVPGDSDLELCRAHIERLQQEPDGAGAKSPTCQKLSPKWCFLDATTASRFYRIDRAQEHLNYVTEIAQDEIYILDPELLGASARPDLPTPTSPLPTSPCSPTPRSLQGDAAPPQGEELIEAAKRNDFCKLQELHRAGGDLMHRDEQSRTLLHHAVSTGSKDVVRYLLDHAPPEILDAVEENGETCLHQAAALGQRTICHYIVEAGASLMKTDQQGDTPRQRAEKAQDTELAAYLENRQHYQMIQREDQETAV
Experimental: (§1) Enzymatic reactions of DGKζ, DGKα and DGKδ were performed using ADP-Glo assay with lipid micelle substrate. […] Full length DGKα (D21-10BG, SignalChem) and full length DGKδ (D23-10G, SignalChem) were purchased. Lipid micelle was prepared by dissolving DAG (Sigma, 317505-10 MG) and PS (Sigma, P7769-100 MG) with chloroform which was furtherly removed by rotary evaporation. The obtained residue was resuspended in buffer containing 25 mM HEPES pH 7.0, 0.5 mM EDTA and 160 mM Octyl β-D glucopyranoside by vigorous mixing and ultrasonic (IID, Scientz).
(§2) The inhibition activities testing for the compound disclosed herein were carried out at room temperature in assay buffer containing 50 mM HEPES, 10 mM MgCl2, 0.01% BSA, 0.1 mM Na3VO4, 0.005% Tween-20 and 0.01 mM CaCl2). Compounds in DMSO were dispensed into wells of a black 384 well plate (Corning 4514) using D300e digital dispenser (Tecan). […] 3 μL 2× enzyme solution was added to wells. […] After 1 hour reaction, 5 μL ADP-Glo reagent (Promga V9101) was added and incubated for 40 minutes. 10 μL Kinase Detection reagent was added and incubated for 30 minutes. Luminescence was measured on a microplate reader (PHERAstar FSX, BMG labtech). The IC50S are calculated based on inhibition of enzyme activity in the presence of increasing concentrations of compounds.
Human His-TEV-DGK-zeta-pFastBac1 and human baculovirus samples was generated using the Bac- to -Bac baculovirus expression system (Invitrogen) according to the manufacturer's protocol. The DNA used for expression of DGK-zeta, have SEQ ID Nos: 1. Baculovirus amplification was achieved using infected SF9 cells at 1:2000 virus/cells ratios, and grown for 96 hours at 27° C. post-transfected.
The expression scaled up for each protein was carried out in the […] from CORNING. 4 L of 3×10^6 cells/mL Sf9 cells (Expression System, Invitrogen) grown in SF900™ II SFM insect medium (Expression System) was infected with virus stock at 1:200 virus/cells ratio, and grown for 48 hours at 27° C. post-transfection. The infected cell culture was harvested by centrifugation at 6000 rpm for 15 min 4° C. in a SORVALL LYNX6000 centrifuge. The cell pellets were stored at −80° C.
Full length human DGKζ produced as described above, was purified from Sf9 baculovirus-infected insect cell paste. The cells were lysed using sonication method, and the lysates were clarified by centrifugation.

[2] = biological target: T2, Full length DGKα (D21-10BG, SignalChem) (Homo sapiens, UniProt P23743); test: Biochemical DGK IC50 assay (ADP-Glo, lipid micelle substrate), DGKα; conditions: 1 hour preincubation, 1 hour reaction, room temperature
T2 construct: Full length DGKα (D21-10BG, SignalChem); purchased SignalChem D21-10BG
T2 sequence (P23743 whole entry): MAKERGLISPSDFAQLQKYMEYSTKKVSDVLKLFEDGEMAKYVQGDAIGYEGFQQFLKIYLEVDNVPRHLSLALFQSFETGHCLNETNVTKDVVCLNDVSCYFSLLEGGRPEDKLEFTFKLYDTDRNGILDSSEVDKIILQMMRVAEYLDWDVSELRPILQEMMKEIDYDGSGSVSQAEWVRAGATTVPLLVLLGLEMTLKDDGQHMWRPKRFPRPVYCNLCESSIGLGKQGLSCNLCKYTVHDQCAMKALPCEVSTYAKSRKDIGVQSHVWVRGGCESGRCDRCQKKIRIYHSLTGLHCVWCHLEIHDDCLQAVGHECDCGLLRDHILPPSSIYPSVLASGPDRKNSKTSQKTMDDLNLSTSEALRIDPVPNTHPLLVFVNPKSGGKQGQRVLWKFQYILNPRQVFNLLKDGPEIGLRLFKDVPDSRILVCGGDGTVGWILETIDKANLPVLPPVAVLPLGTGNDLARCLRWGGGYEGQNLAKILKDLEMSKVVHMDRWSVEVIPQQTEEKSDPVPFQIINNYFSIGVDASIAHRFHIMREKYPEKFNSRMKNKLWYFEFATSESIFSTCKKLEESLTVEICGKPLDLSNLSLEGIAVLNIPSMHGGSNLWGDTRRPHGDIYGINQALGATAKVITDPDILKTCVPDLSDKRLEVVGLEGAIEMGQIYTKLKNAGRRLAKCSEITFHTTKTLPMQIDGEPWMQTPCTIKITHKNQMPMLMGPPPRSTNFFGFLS
Experimental: as §1, §2

pIC50 [1] | pIC50 [2] | SMILES
7.32 | < 3.82 | CCn1c(CC#N)nc2c(N3C[C@@H](C)N(C(C)c4cc(F)c5c(n4)OC(C)(C)CO5)C[C@@H]3C)nc(=O)n(C)c21 (mixture of isomers) [Compound A163, 2-(9-ethyl-6-((2S,5R)-4-(1-(8-fluoro-3,3-dimethyl-2,3-dihydro-[1,4]dioxino[2,3-b]pyridin-6-yl)ethyl)-2,5-dimethylpiperazin-1-yl)-3-methyl-2-oxo-3,9-dihydro-2H-purin-8-yl)acetonitrile]
< 5.00 | < 3.82 | CCn1c(CC#N)nc2c(N3C[C@@H](C)N(C(C)c4ccc(=O)n(C)c4)C[C@@H]3C)nc(=O)n(C)c21 (stereo partly drawn) [Compound A106, 2-(6-((2S,5R)-2,5-dimethyl-4-(1-(1-methyl-6-oxo-1,6-dihydropyridin-3-yl)ethyl)piperazin-1-yl)-9-ethyl-3-methyl-2-oxo-3,9-dihydro-2H-purin-8-yl)acetonitrile]
7.17 | < 3.82 | CC(c1ccc2c(c1)OC(C)(C)CO2)N1C[C@H](C)N(c2nc(=O)n(C)c3c2nc(CC#N)n3C2CC2)C[C@H]1C (stereo partly drawn) [Compound A86, 2-(9-cyclopropyl-6-((2S,5R)-4-(1-(3,3-dimethyl-2,3-dihydrobenzo[b][1,4]dioxin-6-yl)ethyl)-2,5-dimethylpiperazin-1-yl)-3-methyl-2-oxo-3,9-dihydro-2H-purin-8-yl)acetonitrile]
6.70 | 4.14 | CC(c1cc(F)c2c(c1)OC(C)(C)CO2)N1C[C@H](C)N(c2nc(=O)n(C)c3c2nc(CC#N)n3C)C[C@H]1C (single isomer, unassigned) [Compound A68b]
7.46 | 3.91 | Cc1cnc2ccc(C(C)N3C[C@H](C)N(c4nc(=O)n(C)c5c4nc(CC#N)n5C)C[C@H]3C)cc2n1 (stereo partly drawn) [Compound A49, 2-(6-((2S,5R)-2,5-dimethyl-4-(1-(3-methylquinoxalin-6-yl)ethyl)piperazin-1-yl)-3,9-dimethyl-2-oxo-3,9-dihydro-2H-purin-8-yl)acetonitrile]
7.70 | < 3.82 | CCn1c(CC#N)nc2c(N3C[C@@H](C)N(C(C)c4ccc5occ(C)c(=O)c5c4)C[C@@H]3C)nc(=O)n(C)c21 (stereo partly drawn) [Compound A91, 2-(6-((2S,5R)-2,5-dimethyl-4-(1-(3-methyl-4-oxo-4H-chromen-6-yl)ethyl)piperazin-1-yl)-9-ethyl-3-methyl-2-oxo-3,9-dihydro-2H-purin-8-yl)acetonitrile]
6.18 | < 3.82 | CCn1c(=O)nc(N2C[C@@H](C)N(C(C)c3ccc4ncc(C)nc4c3)C[C@@H]2C)c2nc(CC#N)n(C)c21 (single isomer, unassigned) [Compound A53b]
7.96 | 4.61 | CCc1nc2cc(C(C)N3C[C@H](C)N(c4nc(=O)n(C)c5c4nc(CC#N)n5CC)C[C@H]3C)ccc2s1 (single isomer, unassigned) [Compound A95a]
7.42 | 5.14 | CC(c1ccc2c(c1)OC(F)(F)C(F)(F)O2)N1C[C@H](C)N(c2nc(=O)n(C)c3c2nc(CC#N)n3C)C[C@H]1C (single isomer, unassigned) [Compound A79a]
6.40 | 4.59 | CCn1c(CC#N)nc2c(N3C[C@@H](C)N(C(C)c4ccc(C(F)(F)F)cc4)C[C@@H]3C)nc(=O)n(C)c21 (stereo partly drawn) [Compound A40, 2-(6-((2S,5R)-2,5-dimethyl-4-(1-(4-(trifluoromethyl)phenyl)ethyl)piperazin-1-yl)-9-ethyl-3-methyl-2-oxo-3,9-dihydro-2H-purin-8-yl)acetonitrile]
5.93 | < 3.82 | CCn1c(CC#N)nc2c(N3C[C@@H](C)N(C(C)c4cc5c(cc4Cl)OC(C)(C)O5)C[C@@H]3C)nc(=O)n(C)c21 (stereo partly drawn) [Compound A170, 2-(6-((2S,5R)-4-(1-(6-chloro-2,2-dimethylbenzo[d][1,3]dioxol-5-yl)ethyl)-2,5-dimethylpiperazin-1-yl)-9-ethyl-3-methyl-2-oxo-3,9-dihydro-2H-purin-8-yl)acetonitrile]
7.66 | 5.13 | CC[C@@H]1CN(c2nc(=O)n(C)c3c2nc(CC#N)n3C)[C@@H](C)CN1C(C)c1ccc2c(c1)OC(C)(C)CO2 (single isomer, unassigned) [Compound A63b]
6.30 | < 3.82 | CCn1c(CC#N)nc2c(N3C[C@@H](C)N(C(=O)c4ccc5c(n4)C(C)(C)CO5)C[C@@H]3C)nc(=O)n(C)c21 [Compound A182, 2-(6-((2S,5R)-4-(3,3-dimethyl-2,3-dihydrofuro[3,2-b]pyridine-5-carbonyl)-2,5-dimethylpiperazin-1-yl)-9-ethyl-3-methyl-2-oxo-3,9-dihydro-2H-purin-8-yl)acetonitrile]
5.56 | < 3.82 | CCn1c(CC#N)nc2c(N3C[C@@H](C)N(C(C)c4ccc(F)cc4C(F)(F)F)C[C@@H]3C)nc(=O)n(C)c21 (single isomer, unassigned) [Compound A35a]
7.27 | < 3.82 | COC[C@H]1CN(C(C)c2ccc3ncc(C)nc3c2)[C@H](C)CN1c1nc(=O)n(C)c2c1nc(CC#N)n2C (single isomer, unassigned) [Compound A13b]
8.30 | 4.84 | CC(c1ccc2c(c1)OC(C)(C)O2)N1C[C@H](C)N(c2nc(=O)n(C)c3c2nc(CC#N)n3C)C[C@H]1C (single isomer, unassigned) [Compound A98a]
6.68 | < 3.82 | CCn1c(CC#N)nc2c(N3C[C@@H](C)N(C(C)c4ccc(OC)c(C(C)(F)F)c4)C[C@@H]3C)nc(=O)n(C)c21 (stereo partly drawn) [Compound A39, 2-(6-((2S,5R)-4-(1-(3-(1,1-difluoroethyl)-4-methoxyphenyl)ethyl)-2,5-dimethylpiperazin-1-yl)-9-ethyl-3-methyl-2-oxo-3,9-dihydro-2H-purin-8-yl)acetonitrile]
7.82 | 4.03 | CCn1c(CC#N)nc2c(N3C[C@@H](C)N(C(C)c4ccc5c(c4)C(=O)N(C(C)C)C5=O)C[C@@H]3C)nc(=O)n(C)c21 (stereo partly drawn) [Compound A178, 2-(9-ethyl-6-((2S,5R)-4-(1-(2-isopropyl-1,3-dioxoisoindolin-5-yl)ethyl)-2,5-dimethylpiperazin-1-yl)-3-methyl-2-oxo-3,9-dihydro-2H-purin-8-yl)acetonitrile]
7.31 | 3.89 | CCn1c(CC#N)nc2c(N3C[C@@H](C)N(C(C)c4cccc(C(C)C)n4)C[C@@H]3C)nc(=O)n(C)c21 (stereo partly drawn) [Compound A123, 2-(9-ethyl-6-((2S,5R)-4-(1-(6-isopropylpyridin-2-yl)ethyl)-2,5-dimethylpiperazin-1-yl)-3-methyl-2-oxo-3,9-dihydro-2H-purin-8-yl)acetonitrile]
6.67 | < 3.82 | CCn1c(CC#N)nc2c(N3C[C@@H](C)N(C(C)c4ccnc(N5CCC5)c4)C[C@@H]3C)nc(=O)n(C)c21 (stereo partly drawn) [Compound A121, 2-(6-((2S,5R)-4-(1-(2-(azetidin-1-yl)pyridin-4-yl)ethyl)-2,5-dimethylpiperazin-1-yl)-9-ethyl-3-methyl-2-oxo-3,9-dihydro-2H-purin-8-yl)acetonitrile]
7.72 | 4.69 | CC(c1ccc2nccnc2c1)N1C[C@H](C)N(c2cc(=O)n(C)c3c2nc(CC#N)n3C)C[C@H]1C (stereo partly drawn) [Compound A1, 2-(7-((2S,5R)-2,5-dimethyl-4-(1-(quinoxalin-6-yl)ethyl)piperazin-1-yl)-3,4-dimethyl-5-oxo-4,5-dihydro-3H-imidazo[4,5-b]pyridin-2-yl)acetonitrile]
6.58 | < 5.00 | CC(c1ccc(F)cc1C(F)(F)F)N1C[C@H](C)N(c2cc(=O)n(C)c3[nH]c(CC#N)nc23)C[C@H]1C (stereo partly drawn) [Compound A9, 2-(7-((2S,5R)-4-(1-(4-fluoro-2-(trifluoromethyl)phenyl)ethyl)-2,5-dimethylpiperazin-1-yl)-4-methyl-5-oxo-4,5-dihydro-3H-imidazo[4,5-b]pyridin-2-yl)acetonitrile]
7.59 | < 5.00 | CC(c1ccc2nccnc2c1)N1C[C@H](C)N(c2c(F)c(=O)n(C)c3c2nc(CC#N)n3C)C[C@H]1C (single isomer, unassigned) [Compound A22a]
7.82 | 4.00 | COCc1cc(F)ccc1C(C)N1C[C@H](C)N(c2nc(=O)n(C)c3c2nc(CC#N)n3C)C[C@H]1C (single isomer, unassigned) [Compound A27b]
